Some test systems named below: LXFL 529 NSCLC; RXF-631 renal; SNB-78 CNS; XF 498 CNS; DMS 273 small cell lung; DMS 114 small cell lung; KM20L2 colon; HOP-18 NSCLC; MDA-N; P388 leukemia; SN12K1 renal; P388/ADR leukemia.
Common to all, as to test: NCI tumour cell line growth inhibition, 48 h

Values joined by “and” are separate entries in the source; they are usually repeats but may differ in a detail not shown here. Identical values can stand only once.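 Grown in 96-well plates, cells were treated for 48 hours with each compound at five concentrations. Insufficient inhibition: endpoint recorded as highest concentration tested. The concentration for 50% growth inhibition is given as GI50. TGI: concentration producing complete growth inhibition.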 Some results are limits rather than exact numbers.

Turning to `O=C(CCc1nnc2s/c(=C\c3ccc([N+](=O)[O-])cc3)c(=O)n12)Nc1ccc(Cl)c(Cl)c1`, the TGI with LXFL 529 NSCLC was 26.2 µM; in the assay on RXF-631 renal, over 100 µM; with SNB-78 CNS it was 52.8 µM; in the assay on XF 498 CNS, 45.5 µM; in the assay on DMS 273 small cell lung, 54.4 µM; with DMS 114 small cell lung, 33.4 µM. This molecule registered a TGI in the assay on KM20L2 colon of over 100 µM.
On to `C[C@@H]1C(=O)CC2C(C)(C)CCC[C@]2(C)[C@@]12CC[C@]1(C=COC1)O2` (stereo partly specified), for which the TGI in the assay with HOP-18 NSCLC, with SNB-78 CNS, with DMS 273 small cell lung, in the assay with DMS 114 small cell lung and in the assay on KM20L2 colon was over 100 µM throughout.
In the case of `CN(C)CC1CC/C(=C\c2ccc(Cl)c(Cl)c2)C1=O` (stereo unspecified), the TGI in the assay with LXFL 529 NSCLC was 27 µM; with HOP-18 NSCLC, over 100 µM; in the assay on SNB-78 CNS, over 78.8 µM; with XF 498 CNS it was over 65.4 µM; with DMS 273 small cell lung, over 51.9 µM; in the assay on DMS 114 small cell lung it was over 72.7 µM. This molecule also displayed a TGI with KM20L2 colon of over 50.2 µM.
For the molecule `Cc1c2cnccc2c(C)c2c1c1ccccc1n2CCOC(=O)c1ccccc1`, the TGI in the assay with MDA-N is over 100 µM; in the assay on HOP-18 NSCLC, over 100 µM; with P388 leukemia, 41.4 µM; with SNB-78 CNS, 85.4 µM; in the assay on XF 498 CNS, 5.64 µM; with DMS 273 small cell lung it was 18 µM. For the same molecule, the TGI in the assay on SN12K1 renal was 26.6 µM; in the assay on P388/ADR leukemia, 35.1 µM; in the assay with DMS 114 small cell lung it was 30.6 µM; in the assay with KM20L2 colon, 50.5 µM.
Regarding `Cn1cc(C2NC(=O)c3ccccc3N2)c2ccccc21` (stereo unspecified), the TGI with MDA-N is 0.591 µM.
For the molecule `CC(=O)OCC1C(=O)OCC1C(=O)N1Cc2cc3ccccc3nc2C1` (stereo unspecified), the TGI in the assay with LXFL 529 NSCLC worked out at 5.22 µM; in the assay on MDA-N it was 13.1 µM; in the assay with HOP-18 NSCLC it was 10.2 µM; in the assay with XF 498 CNS it was 4.51 µM; in the assay with DMS 273 small cell lung, 17.8 µM; in the assay on DMS 114 small cell lung, 29.8 µM. For the same molecule, the TGI with KM20L2 colon is 11 µM.
For `Cc1c(C(Cc2ccccc2N(C)C(=O)/C=C\C(=O)O)c2c[nH]c3ccccc23)c2ccccc2n1C` (stereo unspecified), the TGI amounted to 26 µM with LXFL 529 NSCLC; 27.9 µM with RXF-631 renal; 53.8 µM in the assay on SNB-78 CNS; 36.9 µM in the assay on XF 498 CNS; 32.7 µM in the assay on DMS 273 small cell lung; 27.5 µM in the assay with DMS 114 small cell lung. In the assay on KM20L2 colon, this molecule had a TGI of 32.7 µM.
Consider `COc1ccc2c(c1)[C@@H](NC(C)=O)CCc1cc(OC)c(OC)c(OC)c1-2`, for which the TGI in the assay with LXFL 529 NSCLC was over 100 µM; with MDA-N, under 0.0204 µM; with HOP-18 NSCLC, over 100 µM; with SNB-78 CNS, over 100 µM; in the assay with XF 498 CNS, 16.2 µM; in the assay on DMS 273 small cell lung it was over 100 µM. This molecule came in with a TGI in the assay on DMS 114 small cell lung of 0.366 µM.
`NC1=C(O)c2cccc3cccc(c23)C1=O`: the TGI with LXFL 529 NSCLC, in the assay on RXF-631 renal, with HOP-18 NSCLC, with SNB-78 CNS, in the assay on DMS 273 small cell lung and in the assay with DMS 114 small cell lung was over 100 µM in each case. The same molecule had a TGI in the assay on KM20L2 colon of over 100 µM.
For `Cc1cc(N(CCC#N)CCC#N)ccc1/C=C(\NC(=O)/C=C/c1ccccc1)C(=O)N=[N+]=[N-]`, the TGI was over 100 µM in the assay on LXFL 529 NSCLC; over 100 µM with SNB-78 CNS; 69.9 µM in the assay with XF 498 CNS; over 100 µM with DMS 273 small cell lung; over 100 µM in the assay with DMS 114 small cell lung; over 100 µM in the assay with KM20L2 colon.
On to `CC1CCCCCC(=O)c2c(O)cc(O)cc2CC(=O)O1` (stereo unspecified), for which the TGI with MDA-N is over 100 µM.
On to `CN(C)CCC(N)(P(=O)([O-])[O-])P(=O)([O-])[O-].N.N.[Pt+2]`, for which the GI50 in the assay with LXFL 529 NSCLC, in the assay on HOP-18 NSCLC, in the assay on SNB-78 CNS, in the assay with DMS 273 small cell lung and in the assay on KM20L2 colon was over 100 µM throughout. Moreover, the TGI in the assay with LXFL 529 NSCLC, with HOP-18 NSCLC, in the assay with SNB-78 CNS, in the assay on DMS 273 small cell lung and with KM20L2 colon was over 100 µM in each case.
Take `O=S1OC(c2ccccc2)(c2ccccc2)C(c2ccccc2)(c2ccccc2)O1`: the TGI with LXFL 529 NSCLC, with RXF-631 renal, in the assay on HOP-18 NSCLC, in the assay on SNB-78 CNS, in the assay with XF 498 CNS and in the assay with DMS 273 small cell lung was over 100 µM each time. Further, the TGI in the assay with DMS 114 small cell lung and in the assay on KM20L2 colon was over 100 µM throughout.
With `C=CC1(C)CCC2C(=CCC3C2(C)CC(O)C(O)C3(C)COC2OC(CO)C(O)C(O)C2O)C1` (stereo unspecified), in the assay on MDA-N, the TGI is over 100 µM.
For the molecule `N#CC(C(=O)CCCC(=O)Nc1ccccc1[N+](=O)[O-])c1c(Cl)cccc1Cl` (stereo unspecified), the TGI in the assay on LXFL 529 NSCLC, in the assay with RXF-631 renal, in the assay with HOP-18 NSCLC, in the assay on SNB-78 CNS, with XF 498 CNS and in the assay with DMS 273 small cell lung was over 100 µM throughout. Moreover, the TGI in the assay with DMS 114 small cell lung and with KM20L2 colon was over 100 µM each time.
As for `COC(=O)C(=O)C(C#N)c1nc2ccccc2s1` (stereo unspecified), the TGI in the assay with LXFL 529 NSCLC, in the assay with RXF-631 renal, in the assay on SNB-78 CNS, in the assay on XF 498 CNS, in the assay with DMS 273 small cell lung and in the assay with DMS 114 small cell lung was over 100 µM in each case. Further, the TGI in the assay on KM20L2 colon is over 100 µM.
For `NC(N)NCCCc1cn2c(n1)C1CCCN1C(=O)C2Cc1ccccc1` (stereo unspecified), the TGI with LXFL 529 NSCLC, in the assay on RXF-631 renal, in the assay on SNB-78 CNS, in the assay on XF 498 CNS, with DMS 273 small cell lung and in the assay on DMS 114 small cell lung was over 100 µM throughout. The TGI with KM20L2 colon is over 100 µM.
For the molecule `O=C([CH-]C(=O)c1ccccc1)c1ccccc1.O=C([CH-]C(=O)c1ccccc1)c1ccccc1.O=C([CH-]C(=O)c1ccccc1)c1ccccc1.[Ga+3]`, in the assay on HOP-18 NSCLC, the GI50 is 39.7 µM and the TGI is over 100 µM. Besides, in the assay on KM20L2 colon, the GI50 is 59.2 µM and the TGI is over 100 µM.
Take `CC(=O)OC(C)(C)C1CC[C@]2(C)/C=C/C(C)C[C@@H](O)/C=C(\C)CC(O)C12` (stereo partly specified): the TGI in the assay on LXFL 529 NSCLC, in the assay on RXF-631 renal, with HOP-18 NSCLC, in the assay with SNB-78 CNS, in the assay with DMS 273 small cell lung and in the assay on DMS 114 small cell lung was over 100 µM throughout. Also, the TGI in the assay with KM20L2 colon was over 100 µM.
Take `O=c1c2ccccc2nc(-c2cccc([N+](=O)[O-])c2)n1O`: the TGI in the assay on MDA-N was over 100 µM.
As for `O=C(CCc1n[nH]c(=S)o1)Nc1cc(Cl)ccc1Cl`, the TGI is over 100 µM in the assay on LXFL 529 NSCLC; over 100 µM in the assay with HOP-18 NSCLC; over 100 µM in the assay on SNB-78 CNS; 36.1 µM in the assay with DMS 273 small cell lung; over 100 µM in the assay on KM20L2 colon.
Take `COc1ccc(C(=O)C(C(=O)CCC(=O)Nc2ccc(Cl)c(Cl)c2)c2ccc(OC)cc2)cc1` (stereo unspecified): the TGI with LXFL 529 NSCLC, with RXF-631 renal, in the assay on HOP-18 NSCLC, with SNB-78 CNS, in the assay with XF 498 CNS and with DMS 273 small cell lung was over 100 µM throughout. Also, the TGI in the assay with DMS 114 small cell lung and in the assay on KM20L2 colon was over 100 µM in each case.
As for `O=C(/C=C/c1ccccc1)NC1C=Nc2ccc([N+](=O)[O-])cc2NC1=O` (stereo unspecified), the TGI in the assay on LXFL 529 NSCLC, in the assay with SNB-78 CNS, in the assay on XF 498 CNS, in the assay with DMS 273 small cell lung, with DMS 114 small cell lung and with KM20L2 colon was over 100 µM each time.
As to `C[N+]1([O-])C2CCC1CC(OC(=O)C(CO)c1ccccc1)C2` (stereo unspecified), the TGI with MDA-N is over 100 µM.
Still for that read-out and setting: the value for `Cc1ccc(N)c(S)c1` was 28.2 µM; that for `C=C(CO)C(=O)OC1CC(=C)C2CC(O)C(C)C2C2OC(=O)C(=C)C12` (stereo unspecified) was 38 µM.
Regarding `CC[C@@]1(OP(=O)(O)O)C(=O)OCc2c1cc1n(c2=O)Cc2cc3ccccc3nc2-1`, the TGI is 70.8 µM in the assay with LXFL 529 NSCLC; 4.59 µM in the assay on MDA-N; 44.4 µM with HOP-18 NSCLC; over 100 µM in the assay with SNB-78 CNS; 2.21 µM and 9.34 µM with XF 498 CNS; 0.194 µM in the assay with DMS 273 small cell lung. Also, the TGI in the assay on DMS 114 small cell lung is 0.509 µM and 3.37 µM. The GI50 in the assay with HOP-18 NSCLC was 0.408 µM; in the assay on SNB-78 CNS, 3.81 µM; in the assay on XF 498 CNS it was 1.88 µM; in the assay on DMS 114 small cell lung it was 0.0678 µM; with KM20L2 colon, 0.458 µM.
Regarding `CC(C)(CN1CCCCC1)C(=O)/C=C/c1ccccc1`, the TGI in the assay on LXFL 529 NSCLC was determined as 34.7 µM; with RXF-631 renal, 59 µM; in the assay with SNB-78 CNS, 80.9 µM; with XF 498 CNS, 29.9 µM; with DMS 273 small cell lung it was 36.5 µM; in the assay with DMS 114 small cell lung it was 42 µM. The TGI in the assay with KM20L2 colon was 28.1 µM.
As for `C/C(CN1C(=O)c2ccccc2C1=O)=N\NS(=O)(=O)c1ccc2ccccc2c1`, the TGI in the assay on LXFL 529 NSCLC, in the assay on HOP-18 NSCLC, in the assay with SNB-78 CNS, in the assay on DMS 273 small cell lung, in the assay on DMS 114 small cell lung and with KM20L2 colon was over 100 µM in each case.
Regarding `O=C1C2C3CC4C5C3C1C5C1(SCCS1)C42` (stereo unspecified), the TGI in the assay on LXFL 529 NSCLC, in the assay with HOP-18 NSCLC, with SNB-78 CNS, with DMS 273 small cell lung, in the assay on DMS 114 small cell lung and with KM20L2 colon was over 100 µM throughout.
For the molecule `COc1ccc(C2COc3c(ccc(OC)c3OC)C2=O)cc1OC` (stereo unspecified), the TGI in the assay on LXFL 529 NSCLC, in the assay with HOP-18 NSCLC, with SNB-78 CNS, with XF 498 CNS, in the assay on DMS 114 small cell lung and in the assay on KM20L2 colon was over 100 µM throughout.
As for `COc1nc(NC2OC(COC(C)=O)C(OC(C)=O)C(OC(C)=O)C2OC(C)=O)c(N=CC=Nc2c(NC3OC(COC(C)=O)C(OC(C)=O)C(OC(C)=O)C3OC(C)=O)nc(OC)[nH]c2=O)c(=O)[nH]1` (stereo unspecified), the TGI with LXFL 529 NSCLC, in the assay with HOP-18 NSCLC, in the assay with DMS 114 small cell lung and in the assay on KM20L2 colon was over 100 µM throughout.

Source of the values: PubChem BioAssay (NCI).
